Results as given in US20160046618A1, “Cyclopropyl Fused Thiazin-2-Amine Compounds as Beta-Secretase Inhibitors and Methods of Use” (AMGEN INC., priority 2014, published 2016).

Tests used:
human recombinant BACE1 = human recombinant BACE1 (Homo sapiens (Human), UniProt P56817); test: In vitro enzymatic BACE1 FRET assay; format: biochemical; conditions: read-out: IC50 IP (μM) BACE1 enzyme
Procedure, shortened: (§1)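 Read-out: dequenched fluorescence, excitation 488 nm, emission 590 nm, after proteolysis of a quenched peptide spanning the BACE cleavage site. Substrate at 50 nM, 1 h incubation, termination by Tris addition to neutral pH.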

Recombinant Cat D = Recombinant Cat D (Homo sapiens (Human), UniProt P07339); test: In vitro enzymatic Cathepsin D (Cat D) FRET assay; format: biochemical; conditions: read-out: IC50 IP (μM) CatD
Chain of Recombinant Cat D (P07339 65-412): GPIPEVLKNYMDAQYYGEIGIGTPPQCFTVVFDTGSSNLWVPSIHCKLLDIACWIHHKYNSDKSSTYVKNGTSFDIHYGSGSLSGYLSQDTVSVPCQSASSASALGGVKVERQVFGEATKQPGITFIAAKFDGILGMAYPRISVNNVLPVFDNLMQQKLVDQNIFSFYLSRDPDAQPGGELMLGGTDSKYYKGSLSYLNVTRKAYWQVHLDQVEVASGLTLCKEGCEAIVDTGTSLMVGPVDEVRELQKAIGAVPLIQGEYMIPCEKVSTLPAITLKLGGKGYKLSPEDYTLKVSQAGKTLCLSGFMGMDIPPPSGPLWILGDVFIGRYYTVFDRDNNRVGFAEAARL
Procedure, shortened: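 CHO-expressed enzyme; buffer 0.05 M citrate pH 3.5, 5 mM CHAPS, 10% DMSO final. Start with FRET substrate 20 nM, 1 h incubation, Tris stop (pH to neutral), fluorescence ex 500 nm/em 580 nm.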

human recombinant BACE2 = human recombinant BACE2 (Homo sapiens (Human), UniProt Q9Y5Z0); test: In vitro enzymatic BACE2 FRET assay; format: biochemical; conditions: read-out: IC50 IP (μM) BACE2 enzyme
Chain of human recombinant BACE2 (Q9Y5Z0 63-518): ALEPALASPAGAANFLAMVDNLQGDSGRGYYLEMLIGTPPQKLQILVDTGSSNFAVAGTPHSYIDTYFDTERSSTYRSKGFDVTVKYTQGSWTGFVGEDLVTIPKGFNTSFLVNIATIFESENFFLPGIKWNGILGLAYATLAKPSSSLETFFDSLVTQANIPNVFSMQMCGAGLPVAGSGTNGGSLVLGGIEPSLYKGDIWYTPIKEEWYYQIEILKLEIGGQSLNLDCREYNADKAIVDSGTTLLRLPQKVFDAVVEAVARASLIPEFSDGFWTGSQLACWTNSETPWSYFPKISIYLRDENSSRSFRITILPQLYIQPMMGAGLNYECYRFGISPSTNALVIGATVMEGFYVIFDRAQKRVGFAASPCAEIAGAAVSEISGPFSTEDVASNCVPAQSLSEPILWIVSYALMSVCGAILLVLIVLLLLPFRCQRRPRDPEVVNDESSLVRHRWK
Procedure, shortened: as §1

[1] = tested on: Aβ40 in conditioned medium of cells stably expressing Amyloid Precursor Protein (APP); test: In vitro BACE-1 cell-based assay (Aβ40 sandwich ELISA); conditions: read-out: IC50 IP (μM) BACE1 cell
Procedure, shortened: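 Read-out: time-resolved fluorescence (Streptavidin-Europium) of Aβ40 captured by pAb40 and detected with biotinylated 6E10 from supernatants of APP-stable cells. Cells were exposed to compound for 24 h, 10-point dose response, top dose 100 μM or 10 μM, 0.1% DMSO. IC50 fitted to percent of control.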

Chain of human recombinant BACE1 (P56817 46-501): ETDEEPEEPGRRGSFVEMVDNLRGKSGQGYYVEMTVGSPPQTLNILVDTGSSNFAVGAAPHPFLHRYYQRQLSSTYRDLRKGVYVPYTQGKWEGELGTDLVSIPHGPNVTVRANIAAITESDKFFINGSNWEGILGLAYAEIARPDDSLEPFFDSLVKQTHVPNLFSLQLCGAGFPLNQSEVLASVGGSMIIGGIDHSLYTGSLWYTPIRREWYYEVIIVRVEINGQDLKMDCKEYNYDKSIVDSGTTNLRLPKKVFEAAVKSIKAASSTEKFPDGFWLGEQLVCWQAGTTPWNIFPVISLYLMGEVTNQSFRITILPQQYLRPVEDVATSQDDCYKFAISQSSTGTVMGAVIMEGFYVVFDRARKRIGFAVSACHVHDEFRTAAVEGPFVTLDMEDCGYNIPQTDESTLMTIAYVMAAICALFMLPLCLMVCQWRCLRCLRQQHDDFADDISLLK

Work on `C#CCOc1cnc(C(=O)Nc2cnc(F)c([C@@]3(C)N=C(N)S[C@@]4(CF)C[C@H]43)c2)c(C)n1` [Example 603, N-(5-((1S,5S,6S)-3-amino-1-(fluoromethyl)-5-methyl-2-thia-4-azabicyclo[4.1.0]hept-3-en-5-yl)-6-fluoro-3-pyridinyl)-3-methyl-5-(2-propyn-1-yloxy)-2-pyrazinecarboxamide] yielded an IC50 (human recombinant BACE1) of 0.0016 µM, an IC50 (Recombinant Cat D) of 336 µM and an IC50 (human recombinant BACE2) of 0.0132 µM. For the same compound, the IC50 [1] was 0.0037 µM.

For `C[C@]1(c2cc(Nc3nccc4cc(C#N)cnc34)cnc2F)N=C(N)S[C@@]2(CF)C[C@H]21` [Example 604, 8-((5-((1S,5S,6S)-3-amino-1-(fluoromethyl)-5-methyl-2-thia-4-azabicyclo[4.1.0]hept-3-en-5-yl)-6-fluoro-3-pyridinyl)amino)-1,7-naphthyridine-3-carbonitrile], the IC50 (human recombinant BACE1) was 0.00624 µM, the IC50 (Recombinant Cat D) was 571 µM and the IC50 (human recombinant BACE2) was 0.00378 µM. For the same compound, the IC50 [1] was 0.00933 µM.

`C[C@]1(c2cc(Nc3ncnc4cc(OCc5ncco5)cnc34)cnc2F)N=C(N)S[C@@]2(CF)C[C@H]21` [Example 605, N-(5-((1S,5S,6S)-3-amino-1-(fluoromethyl)-5-methyl-2-thia-4-azabicyclo[4.1.0]hept-3-en-5-yl)-6-fluoro-3-pyridinyl)-7-(1,3-oxazol-2-ylmethoxy)pyrido[3,2-d]pyrimidin-4-amine] showed an IC50 (human recombinant BACE1) of 0.00178 µM, an IC50 (Recombinant Cat D) of 1290 µM and an IC50 (human recombinant BACE2) of 0.114 µM. It also gave an IC50 [1] of 0.00149 µM.

`C#CCOc1cnc(C(=O)Nc2cnc(F)c([C@@]3(C)N=C(N)S[C@@]4(CF)C[C@H]43)c2)cn1` [Example 606, N-(5-((1S,5S,6S)-3-amino-1-(fluoromethyl)-5-methyl-2-thia-4-azabicyclo[4.1.0]hept-3-en-5-yl)-6-fluoropyridin-3-yl)-5-(prop-2-yn-1-yloxy)pyrazine-2-carboxamide] was tested, and the IC50 (human recombinant BACE1) was 0.00032 µM, the IC50 (Recombinant Cat D) was 278 µM and the IC50 (human recombinant BACE2) was 0.00931 µM. For the same compound, the IC50 [1] was 0.000849 µM.

Compound `C[C@]1(c2cc(NC(=O)c3cnc(OCc4ncco4)cn3)cnc2F)N=C(N)S[C@@]2(CF)C[C@H]21` [Example 607, N-(5-((1S,5S,6S)-3-amino-1-(fluoromethyl)-5-methyl-2-thia-4-azabicyclo[4.1.0]hept-3-en-5-yl)-6-fluoro-3-pyridinyl)-5-(1,3-oxazol-2-ylmethoxy)-2-pyrazinecarboxamide] has an IC50 (human recombinant BACE1) of 0.000975 µM, an IC50 (Recombinant Cat D) of over 400 µM and an IC50 (human recombinant BACE2) of 0.0237 µM. For the same compound, the IC50 [1] was 0.000956 µM.

With `C[C@]1(c2cc(Nc3ncnc4cc(OCc5ncco5)cnc34)cnc2F)N=C(N)S[C@@]2(CC#N)C[C@H]21` [Example 608, ((1R,5S,6S)-3-amino-5-(2-fluoro-5-((7-(1,3-oxazol-2-ylmethoxy)pyrido[3,2-d]pyrimidin-4-yl)amino)-3-pyridinyl)-5-methyl-2-thia-4-azabicyclo[4.1.0]hept-3-en-1-yl)acetonitrile] the IC50 (human recombinant BACE1) was 0.00285 µM, the IC50 (Recombinant Cat D) was over 400 µM and the IC50 (human recombinant BACE2) was 0.154 µM. The IC50 [1] was 0.00174 µM.

With `C[C@]1(c2cc(NC(=O)c3ccc(OCC(F)(F)C(F)F)cn3)cnc2F)N=C(N)S[C@@]2(CF)C[C@H]21` [Example 609, N-(5-((1S,5S,6S)-3-amino-1-(fluoromethyl)-5-methyl-2-thia-4-azabicyclo[4.1.0]hept-3-en-5-yl)-6-fluoro-3-pyridinyl)-5-(2,2,3,3-tetrafluoropropoxy)-2-pyridinecarboxamide] the IC50 (human recombinant BACE1) was 0.00344 µM, the IC50 (Recombinant Cat D) was over 400 µM and the IC50 (human recombinant BACE2) was 0.466 µM. It also gave an IC50 [1] of 0.0194 µM.

Compound `C[C@]1(c2cc(NC(=O)c3cnc(OCC(F)(F)C(F)F)cn3)cnc2F)N=C(N)S[C@@]2(CF)C[C@H]21` [Example 610, N-(5-((1S,5S,6S)-3-amino-1-(fluoromethyl)-5-methyl-2-thia-4-azabicyclo[4.1.0]hept-3-en-5-yl)-6-fluoro-3-pyridinyl)-5-(2,2,3,3-tetrafluoropropoxy)-2-pyrazinecarboxamide] has an IC50 (human recombinant BACE1) of 0.00178 µM, an IC50 (Recombinant Cat D) of over 400 µM and an IC50 (human recombinant BACE2) of 0.193 µM. It also gave an IC50 [1] of 0.00597 µM.

In the case of `C#CCOc1cnc2c(Nc3cnc(OC)c([C@@]4(C)N=C(N)S[C@@]5(CF)C[C@H]54)c3)nccc2n1` [Example 611, N-(5-((1S,5S,6S)-3-amino-1-(fluoromethyl)-5-methyl-2-thia-4-azabicyclo[4.1.0]hept-3-en-5-yl)-6-methoxy-3-pyridinyl)-2-(2-propyn-1-yloxy)pyrido[3,4-b]pyrazin-5-amine], the IC50 (human recombinant BACE1) is reported as 0.00663 µM, the IC50 (Recombinant Cat D) is reported as over 400 µM and the IC50 (human recombinant BACE2) is reported as 0.208 µM. It also gave an IC50 [1] of 0.00649 µM.

`[2H]C([2H])([2H])C#CC([2H])([2H])Oc1cnc2c(Nc3cnc(F)c([C@@]4(C)N=C(N)S[C@@]5(CF)C[C@H]54)c3)nccc2n1` [Example 613, N-(5-((1S,5S,6S)-3-amino-1-(fluoromethyl)-5-methyl-2-thia-4-azabicyclo[4.1.0]hept-3-en-5-yl)-6-fluoro-3-pyridinyl)-2-((~2~H_5_)-2-butyn-1-yloxy)pyrido[3,4-b]pyrazin-5-amine] was tested, and the IC50 (human recombinant BACE1) was 0.000555 µM, the IC50 (Recombinant Cat D) was 709 µM and the IC50 (human recombinant BACE2) was 0.0123 µM. The IC50 [1] was 0.00098 µM.

`Cc1nc(OCC(F)(F)F)cnc1C(=O)Nc1cc(F)c(F)c([C@@]2(C)N=C(N)S[C@@]3(CF)C[C@H]32)c1` [Example 614, N-(3-((1S,5S,6S)-3-amino-1-(fluoromethyl)-5-methyl-2-thia-4-azabicyclo[4.1.0]hept-3-en-5-yl)-4,5-difluorophenyl)-3-methyl-5-(2,2,2-trifluoroethoxy)-2-pyrazinecarboxamide] gave an IC50 (human recombinant BACE1) of 0.00361 µM, an IC50 (Recombinant Cat D) of 340 µM and an IC50 (human recombinant BACE2) of 0.101 µM. For the same compound, the IC50 [1] was 0.0755 µM.

Compound `Cc1nc(OCC(F)(F)F)cnc1C(=O)Nc1cc(F)c(F)c([C@@]2(C)N=C(N)S[C@@]3(C(F)F)C[C@@H]23)c1` [Example 615, N-(3-((1S,5S,6S)-3-amino-1-(difluoromethyl)-5-methyl-2-thia-4-azabicyclo[4.1.0]hept-3-en-5-yl)-4,5-difluorophenyl)-3-methyl-5-(2,2,2-trifluoroethoxy)-2-pyrazinecarboxamide] has an IC50 (human recombinant BACE1) of 0.00273 µM, an IC50 (Recombinant Cat D) of 102 µM and an IC50 (human recombinant BACE2) of 0.117 µM. The IC50 [1] was 0.0788 µM.

`C#C[C@H](C)Oc1cnc(C(=O)Nc2cc(F)c(F)c([C@@]3(C)N=C(N)S[C@@]4(C(F)F)C[C@@H]34)c2)c(C)n1` [Example 617, N-(3-((1S,5S,6S)-3-amino-1-(difluoromethyl)-5-methyl-2-thia-4-azabicyclo[4.1.0]hept-3-en-5-yl)-4,5-difluorophenyl)-3-methyl-5-(((1S)-1-methyl-2-propyn-1-yl)oxy)-2-pyrazinecarboxamide] was tested, and the IC50 (human recombinant BACE1) was 0.00357 µM, the IC50 (Recombinant Cat D) was over 400 µM and the IC50 (human recombinant BACE2) was 0.158 µM. The IC50 [1] was 0.0652 µM.

For `COC[C@]12C[C@H]1[C@@](C)(c1cc(NC(=O)c3ncc(OCC(F)(F)F)nc3C)cc(F)c1F)N=C(N)S2` [Example 618, N-(3-((1S,5S,6S)-3-amino-1-(methoxymethyl)-5-methyl-2-thia-4-azabicyclo[4.1.0]hept-3-en-5-yl)-4,5-difluorophenyl)-3-methyl-5-(2,2,2-trifluoroethoxy)-2-pyrazinecarboxamide], the IC50 (human recombinant BACE1) was 0.00606 µM, the IC50 (Recombinant Cat D) was 1020 µM and the IC50 (human recombinant BACE2) was 0.0161 µM. For the same compound, the IC50 [1] was 0.0557 µM.

With `C#C[C@H](C)Oc1cnc(C(=O)Nc2ccc(F)c([C@@]3(C)N=C(N)S[C@@]4(C(F)F)C[C@@H]34)c2)c(C)n1` [Example 619, N-(3-((1S,5S,6S)-3-amino-1-(difluoromethyl)-5-methyl-2-thia-4-azabicyclo[4.1.0]hept-3-en-5-yl)-4-fluorophenyl)-3-methyl-5-(((1S)-1-methyl-2-propyn-1-yl)oxy)-2-pyrazinecarboxamide] the IC50 (human recombinant BACE1) was 0.00439 µM, the IC50 (Recombinant Cat D) was 655 µM and the IC50 (human recombinant BACE2) was 0.175 µM. For the same compound, the IC50 [1] was 0.0352 µM.

Work on `COC[C@]12C[C@H]1[C@@](C)(c1cc(NC(=O)c3ncc(OCC(F)(F)F)nc3C)ccc1F)N=C(N)S2` [Example 620, N-(3-((1S,5S,6S)-3-amino-1-(methoxymethyl)-5-methyl-2-thia-4-azabicyclo[4.1.0]hept-3-en-5-yl)-4-fluorophenyl)-3-methyl-5-(2,2,2-trifluoroethoxy)-2-pyrazinecarboxamide] yielded an IC50 (human recombinant BACE1) of 0.00832 µM, an IC50 (Recombinant Cat D) of over 400 µM and an IC50 (human recombinant BACE2) of 0.245 µM. It also gave an IC50 [1] of 0.0437 µM.

Work on `C#C[C@H](C)Oc1cnc(C(=O)Nc2ccc(F)c([C@@]3(C)N=C(N)S[C@@]4(COC)C[C@H]43)c2)c(C)n1` [Example 621, N-(3-((1S,5S,6S)-3-amino-1-(methoxymethyl)-5-methyl-2-thia-4-azabicyclo[4.1.0]hept-3-en-5-yl)-4-fluorophenyl)-3-methyl-5-(((1S)-1-methyl-2-propyn-1-yl)oxy)-2-pyrazinecarboxamide] yielded an IC50 (human recombinant BACE1) of 0.0113 µM, an IC50 (Recombinant Cat D) of 710 µM and an IC50 (human recombinant BACE2) of 0.148 µM. For the same compound, the IC50 [1] was 0.0197 µM.

For `Cc1nc(OCC(F)(F)F)cnc1C(=O)Nc1ccc(F)c([C@@]2(C)N=C(N)S[C@@]3(C(F)F)C[C@@H]23)c1` [Example 623, N-(3-((1S,5S,6S)-3-amino-1-(difluoromethyl)-5-methyl-2-thia-4-azabicyclo[4.1.0]hept-3-en-5-yl)-4-fluorophenyl)-3-methyl-5-(2,2,2-trifluoroethoxy)-2-pyrazinecarboxamide], the IC50 (human recombinant BACE1) was 0.00575 µM, the IC50 (Recombinant Cat D) was 641 µM and the IC50 (human recombinant BACE2) was 0.0485 µM. For the same compound, the IC50 [1] was 0.0671 µM.
